The text below walks through data of PMC9030254, “Target Hopping from Protein Kinases to PXR: Identification of Small-Molecule Protein Kinase Inhibitors as Selective Modulators of Pregnane X Receptor from TüKIC Library” (Cells, 2022).

Test in all cases: Kinase profiling
Holding throughout (format): biochemical

One assay deals with T1, FYN (Homo sapiens, UniProt P06241).
T1 construct: purchased ProQinase (Freiburg, Germany)
The protocol:
(§1) The analysis was performed by ProQinase (Freiburg, Germany).

A further assay deals with T2, CDK5/p25NCK (Homo sapiens, UniProt Q00535).
T2 construct: purchased ProQinase (Freiburg, Germany)
The protocol:
as §1

For another assay, the target named is T3, FGFR4 (Homo sapiens, UniProt P22455).
T3 construct: purchased ProQinase (Freiburg, Germany)
The protocol: as §1

The target in another assay is T4, SGK2 (Homo sapiens, UniProt Q9HBY8).
T4 construct: purchased ProQinase (Freiburg, Germany)
T4 sequence (Q9HBY8 1-367): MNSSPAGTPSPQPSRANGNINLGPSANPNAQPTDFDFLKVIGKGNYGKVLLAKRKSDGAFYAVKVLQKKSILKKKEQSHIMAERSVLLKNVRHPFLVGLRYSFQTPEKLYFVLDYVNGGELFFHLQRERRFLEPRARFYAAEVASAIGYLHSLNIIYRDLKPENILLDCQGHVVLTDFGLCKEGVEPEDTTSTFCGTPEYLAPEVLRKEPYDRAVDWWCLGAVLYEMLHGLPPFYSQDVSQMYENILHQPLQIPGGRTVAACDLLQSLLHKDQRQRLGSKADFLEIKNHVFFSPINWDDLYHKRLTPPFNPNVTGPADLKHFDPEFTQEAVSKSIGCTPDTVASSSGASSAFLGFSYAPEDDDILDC
How it is done: as §1

The next assay has as its target T5, CDK7/CycH/MAT1 (Homo sapiens, UniProt P50613).
T5 construct: purchased ProQinase (Freiburg, Germany)
The protocol:
as §1

The target of the next assay is T6, COT (Homo sapiens, UniProt P41279).
T6 construct: purchased ProQinase (Freiburg, Germany)
The protocol:
as §1

Another assay deals with T7, SAK (Homo sapiens, UniProt O00444).
T7 construct: purchased ProQinase (Freiburg, Germany)
T7 sequence (O00444 1-970): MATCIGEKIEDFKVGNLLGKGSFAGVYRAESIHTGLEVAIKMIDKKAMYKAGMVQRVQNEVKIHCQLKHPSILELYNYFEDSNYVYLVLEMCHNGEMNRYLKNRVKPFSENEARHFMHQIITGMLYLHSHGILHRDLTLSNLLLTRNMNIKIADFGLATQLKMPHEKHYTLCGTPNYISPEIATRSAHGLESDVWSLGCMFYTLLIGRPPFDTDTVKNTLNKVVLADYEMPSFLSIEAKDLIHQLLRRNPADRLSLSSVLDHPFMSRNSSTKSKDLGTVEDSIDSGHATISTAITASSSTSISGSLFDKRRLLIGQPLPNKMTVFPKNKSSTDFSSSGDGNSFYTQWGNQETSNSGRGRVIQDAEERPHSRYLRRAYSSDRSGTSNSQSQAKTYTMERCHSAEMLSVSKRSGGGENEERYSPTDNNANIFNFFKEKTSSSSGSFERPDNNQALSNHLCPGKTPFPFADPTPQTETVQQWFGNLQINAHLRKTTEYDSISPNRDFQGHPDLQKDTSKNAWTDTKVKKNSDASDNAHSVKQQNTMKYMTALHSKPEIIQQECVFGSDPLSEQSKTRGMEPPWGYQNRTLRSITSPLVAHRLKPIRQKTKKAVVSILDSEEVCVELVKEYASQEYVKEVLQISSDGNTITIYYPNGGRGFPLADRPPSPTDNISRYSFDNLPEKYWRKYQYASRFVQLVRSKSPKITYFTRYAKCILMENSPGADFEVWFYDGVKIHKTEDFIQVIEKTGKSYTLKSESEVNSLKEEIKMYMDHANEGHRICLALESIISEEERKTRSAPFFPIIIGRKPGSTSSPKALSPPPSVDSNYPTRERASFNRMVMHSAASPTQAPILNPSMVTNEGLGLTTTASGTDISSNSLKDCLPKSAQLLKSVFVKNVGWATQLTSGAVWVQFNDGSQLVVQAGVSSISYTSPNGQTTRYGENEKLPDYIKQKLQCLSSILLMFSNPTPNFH
How it is done: as §1

For another assay, the target named is T8, TSF1 (Homo sapiens, UniProt O75716).
T8 construct: purchased ProQinase (Freiburg, Germany)
The protocol:
as §1

In another assay the target is T9, S6K (Homo sapiens, UniProt P23443).
T9 construct: purchased ProQinase (Freiburg, Germany)
The protocol:
as §1

The next assay concerns the target T10, MEK1 (Homo sapiens, UniProt Q02750).
T10 construct: purchased ProQinase (Freiburg, Germany)
How it is done: as §1

The target of the next assay is T11, ERK7 (Homo sapiens, UniProt Q8TD08).
T11 construct: purchased ProQinase (Freiburg, Germany)
T11 sequence (Q8TD08 1-544): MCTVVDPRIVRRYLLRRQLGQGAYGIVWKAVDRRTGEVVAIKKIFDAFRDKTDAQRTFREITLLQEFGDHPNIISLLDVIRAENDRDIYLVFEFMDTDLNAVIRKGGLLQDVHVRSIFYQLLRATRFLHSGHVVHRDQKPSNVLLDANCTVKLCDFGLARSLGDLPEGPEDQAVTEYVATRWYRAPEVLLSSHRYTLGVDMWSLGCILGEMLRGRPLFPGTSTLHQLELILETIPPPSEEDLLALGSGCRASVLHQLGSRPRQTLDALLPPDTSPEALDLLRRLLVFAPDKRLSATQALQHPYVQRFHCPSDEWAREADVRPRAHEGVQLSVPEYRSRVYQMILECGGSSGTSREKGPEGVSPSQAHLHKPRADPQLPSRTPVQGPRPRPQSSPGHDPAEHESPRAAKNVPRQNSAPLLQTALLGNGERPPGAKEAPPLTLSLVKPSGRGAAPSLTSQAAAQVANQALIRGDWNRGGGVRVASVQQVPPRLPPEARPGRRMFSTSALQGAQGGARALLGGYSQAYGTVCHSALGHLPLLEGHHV
The protocol:
as §1

T10 sequence (Q02750 whole entry): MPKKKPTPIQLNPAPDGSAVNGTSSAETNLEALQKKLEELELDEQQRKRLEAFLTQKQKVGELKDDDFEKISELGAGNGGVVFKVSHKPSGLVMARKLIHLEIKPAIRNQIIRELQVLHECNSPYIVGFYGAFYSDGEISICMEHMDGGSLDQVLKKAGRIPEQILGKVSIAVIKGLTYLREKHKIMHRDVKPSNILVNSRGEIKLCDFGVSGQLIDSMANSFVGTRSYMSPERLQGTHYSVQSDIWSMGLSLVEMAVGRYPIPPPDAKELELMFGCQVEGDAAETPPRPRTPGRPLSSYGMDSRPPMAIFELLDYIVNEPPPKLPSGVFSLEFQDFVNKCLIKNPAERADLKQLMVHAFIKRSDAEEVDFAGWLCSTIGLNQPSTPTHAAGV
T1 sequence (P06241 whole entry): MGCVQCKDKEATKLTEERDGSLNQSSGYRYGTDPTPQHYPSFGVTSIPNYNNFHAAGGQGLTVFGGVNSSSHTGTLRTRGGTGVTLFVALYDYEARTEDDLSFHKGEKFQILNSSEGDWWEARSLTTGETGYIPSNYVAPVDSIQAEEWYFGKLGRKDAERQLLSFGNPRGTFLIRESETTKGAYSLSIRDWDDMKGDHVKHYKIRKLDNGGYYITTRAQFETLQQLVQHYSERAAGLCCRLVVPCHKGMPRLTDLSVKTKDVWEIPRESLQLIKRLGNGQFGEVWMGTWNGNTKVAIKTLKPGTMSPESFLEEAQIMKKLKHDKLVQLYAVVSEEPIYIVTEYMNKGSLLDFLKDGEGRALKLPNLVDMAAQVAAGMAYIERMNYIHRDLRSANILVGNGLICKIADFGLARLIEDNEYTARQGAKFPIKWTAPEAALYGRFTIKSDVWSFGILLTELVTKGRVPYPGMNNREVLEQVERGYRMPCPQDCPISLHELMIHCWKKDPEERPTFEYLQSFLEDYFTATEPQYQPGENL
T9 sequence (P23443 whole entry): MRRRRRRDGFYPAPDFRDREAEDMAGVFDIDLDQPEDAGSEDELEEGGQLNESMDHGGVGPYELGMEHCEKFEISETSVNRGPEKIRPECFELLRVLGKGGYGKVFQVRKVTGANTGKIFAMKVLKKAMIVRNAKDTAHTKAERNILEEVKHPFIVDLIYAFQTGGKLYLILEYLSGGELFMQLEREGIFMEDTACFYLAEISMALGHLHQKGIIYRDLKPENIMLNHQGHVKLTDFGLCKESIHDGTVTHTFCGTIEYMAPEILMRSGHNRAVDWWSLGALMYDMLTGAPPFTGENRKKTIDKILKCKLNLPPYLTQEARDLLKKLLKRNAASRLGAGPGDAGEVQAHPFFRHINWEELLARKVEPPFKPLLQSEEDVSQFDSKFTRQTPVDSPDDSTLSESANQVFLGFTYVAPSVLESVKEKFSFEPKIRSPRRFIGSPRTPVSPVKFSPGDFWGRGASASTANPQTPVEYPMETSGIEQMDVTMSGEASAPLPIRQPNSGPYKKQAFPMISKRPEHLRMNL
T8 sequence (O75716 whole entry): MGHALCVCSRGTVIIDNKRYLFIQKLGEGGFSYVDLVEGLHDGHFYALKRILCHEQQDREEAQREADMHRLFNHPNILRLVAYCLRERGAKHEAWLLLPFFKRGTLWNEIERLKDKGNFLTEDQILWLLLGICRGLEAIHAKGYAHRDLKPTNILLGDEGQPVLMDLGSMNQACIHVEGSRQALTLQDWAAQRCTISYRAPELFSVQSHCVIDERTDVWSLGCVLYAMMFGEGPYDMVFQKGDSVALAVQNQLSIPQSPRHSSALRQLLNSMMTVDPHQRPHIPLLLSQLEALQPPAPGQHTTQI
T3 sequence (P22455 22-802): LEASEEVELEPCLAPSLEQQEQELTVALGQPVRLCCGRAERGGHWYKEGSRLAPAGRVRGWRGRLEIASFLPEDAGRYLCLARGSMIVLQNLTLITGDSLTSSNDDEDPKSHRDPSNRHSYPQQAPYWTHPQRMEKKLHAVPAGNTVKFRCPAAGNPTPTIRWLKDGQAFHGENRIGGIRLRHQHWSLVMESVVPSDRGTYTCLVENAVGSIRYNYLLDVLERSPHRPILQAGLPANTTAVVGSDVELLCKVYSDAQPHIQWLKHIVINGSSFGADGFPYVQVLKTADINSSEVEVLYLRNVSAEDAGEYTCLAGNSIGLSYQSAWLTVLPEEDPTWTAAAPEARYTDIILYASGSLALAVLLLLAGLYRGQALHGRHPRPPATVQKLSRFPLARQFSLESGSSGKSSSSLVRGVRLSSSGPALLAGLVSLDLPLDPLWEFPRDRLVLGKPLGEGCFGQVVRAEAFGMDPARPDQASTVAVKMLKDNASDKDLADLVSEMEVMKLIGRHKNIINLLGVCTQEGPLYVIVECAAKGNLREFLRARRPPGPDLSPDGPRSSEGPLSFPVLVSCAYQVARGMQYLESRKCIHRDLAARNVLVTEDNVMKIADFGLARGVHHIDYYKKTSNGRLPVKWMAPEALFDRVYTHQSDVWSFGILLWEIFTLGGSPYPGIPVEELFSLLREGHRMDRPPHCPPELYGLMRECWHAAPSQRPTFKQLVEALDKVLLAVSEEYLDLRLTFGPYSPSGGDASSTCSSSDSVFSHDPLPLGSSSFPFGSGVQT
T2 sequence (Q00535 whole entry): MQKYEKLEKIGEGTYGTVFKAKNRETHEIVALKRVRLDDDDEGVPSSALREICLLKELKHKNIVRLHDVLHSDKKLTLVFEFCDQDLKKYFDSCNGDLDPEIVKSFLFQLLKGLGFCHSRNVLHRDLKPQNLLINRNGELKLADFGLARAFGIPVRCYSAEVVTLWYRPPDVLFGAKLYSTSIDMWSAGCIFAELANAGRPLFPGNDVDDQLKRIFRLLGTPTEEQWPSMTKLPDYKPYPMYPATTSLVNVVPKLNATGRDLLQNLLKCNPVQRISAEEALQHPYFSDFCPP
T2 sequence (Q15078 99-307 partner limits assumed): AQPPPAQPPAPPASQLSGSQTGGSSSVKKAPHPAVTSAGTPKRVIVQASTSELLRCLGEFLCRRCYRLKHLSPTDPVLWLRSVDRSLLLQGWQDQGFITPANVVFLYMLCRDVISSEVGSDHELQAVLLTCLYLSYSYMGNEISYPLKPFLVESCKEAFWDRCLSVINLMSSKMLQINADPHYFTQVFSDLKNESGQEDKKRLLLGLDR
T6 sequence (P41279 whole entry): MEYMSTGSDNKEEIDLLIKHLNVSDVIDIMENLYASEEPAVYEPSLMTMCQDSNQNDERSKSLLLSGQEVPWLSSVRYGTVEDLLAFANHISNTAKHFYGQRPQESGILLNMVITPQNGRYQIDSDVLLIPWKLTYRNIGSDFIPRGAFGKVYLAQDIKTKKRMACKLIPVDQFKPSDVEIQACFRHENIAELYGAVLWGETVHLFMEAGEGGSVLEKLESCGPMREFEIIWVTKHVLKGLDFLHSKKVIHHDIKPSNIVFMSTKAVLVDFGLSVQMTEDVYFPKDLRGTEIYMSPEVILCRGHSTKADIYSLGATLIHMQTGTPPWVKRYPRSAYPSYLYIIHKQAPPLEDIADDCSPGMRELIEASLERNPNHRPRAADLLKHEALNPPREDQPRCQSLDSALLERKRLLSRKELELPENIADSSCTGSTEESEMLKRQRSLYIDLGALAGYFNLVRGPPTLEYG
T5 sequence (P50613 whole entry): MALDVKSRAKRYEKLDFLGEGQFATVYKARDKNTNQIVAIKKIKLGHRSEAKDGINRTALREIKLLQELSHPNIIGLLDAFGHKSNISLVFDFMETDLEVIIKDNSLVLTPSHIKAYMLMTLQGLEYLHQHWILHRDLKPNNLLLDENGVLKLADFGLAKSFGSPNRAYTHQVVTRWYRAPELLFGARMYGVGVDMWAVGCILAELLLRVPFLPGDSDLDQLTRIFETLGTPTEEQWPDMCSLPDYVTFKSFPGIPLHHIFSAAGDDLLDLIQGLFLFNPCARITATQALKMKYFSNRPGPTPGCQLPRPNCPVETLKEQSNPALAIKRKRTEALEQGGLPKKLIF
T5 sequence (P51946 whole entry partner): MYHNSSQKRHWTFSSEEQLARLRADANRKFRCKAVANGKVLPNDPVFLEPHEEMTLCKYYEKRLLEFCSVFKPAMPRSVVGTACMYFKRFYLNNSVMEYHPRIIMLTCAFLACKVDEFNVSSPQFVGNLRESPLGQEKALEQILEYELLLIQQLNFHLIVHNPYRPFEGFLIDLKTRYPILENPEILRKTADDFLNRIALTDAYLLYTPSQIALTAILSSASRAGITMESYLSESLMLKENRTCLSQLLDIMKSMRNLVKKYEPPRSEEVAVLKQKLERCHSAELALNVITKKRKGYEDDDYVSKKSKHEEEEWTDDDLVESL
T5 sequence (P51948 whole entry partner): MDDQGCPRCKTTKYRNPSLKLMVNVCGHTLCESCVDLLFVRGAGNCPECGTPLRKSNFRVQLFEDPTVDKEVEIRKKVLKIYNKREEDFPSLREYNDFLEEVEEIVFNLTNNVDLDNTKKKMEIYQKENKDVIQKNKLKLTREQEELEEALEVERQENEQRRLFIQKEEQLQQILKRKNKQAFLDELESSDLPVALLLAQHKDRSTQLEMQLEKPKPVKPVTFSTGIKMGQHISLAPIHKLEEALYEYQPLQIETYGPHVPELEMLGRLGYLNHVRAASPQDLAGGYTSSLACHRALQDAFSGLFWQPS

With `O=C(Cc1ccccc1)Nc1ccc(F)c(Nc2ccc3c(c2)CCCCC3=O)c1` [Compound 100], the Residual activity at FYN (1.0E-05 M) is on record as 55 % of control; on FYN (1.0E-06 M) it was 90 % of control; on CDK5/p25NCK (1.0E-05 M), 90 % of control; on CDK5/p25NCK (1.0E-06 M) it was 99 % of control; at FGFR4 (1.0E-05 M), 67 % of control; at FGFR4 (1.0E-06 M), 96 % of control. Also, the Residual activity was 93 % of control on SGK2 (1.0E-05 M); 101 % of control on SGK2 (1.0E-06 M); 83 % of control at CDK7/CycH/MAT1 (1.0E-05 M); 94 % of control at CDK7/CycH/MAT1 (1.0E-06 M); 106 % of control on COT (1.0E-05 M); 93 % of control at COT (1.0E-06 M). The Residual activity on SAK (1.0E-05 M) was 81 % of control; on SAK (1.0E-06 M), 92 % of control; on TSF1 (1.0E-05 M), 88 % of control; at TSF1 (1.0E-06 M), 107 % of control; on S6K (1.0E-05 M), 92 % of control; on S6K (1.0E-06 M), 102 % of control. Moreover, the Residual activity at MEK1 (1.0E-05 M) was 114 % of control; at MEK1 (1.0E-06 M), 112 % of control; on ERK7 (1.0E-05 M), 85 % of control; at ERK7 (1.0E-06 M) it was 96 % of control.
For the molecule `O=C(Nc1ccc(F)c(Nc2ccc3c(c2)CCCCC3=O)c1)c1cccc(F)c1` [Compound 109], the Residual activity on FYN (1.0E-05 M) was 83 % of control; on FYN (1.0E-06 M) it was 104 % of control; at CDK5/p25NCK (1.0E-05 M), 95 % of control; on CDK5/p25NCK (1.0E-06 M), 95 % of control; on FGFR4 (1.0E-05 M), 79 % of control; at FGFR4 (1.0E-06 M) it was 90 % of control. In addition, the Residual activity on SGK2 (1.0E-05 M) is reported as 96 % of control; on SGK2 (1.0E-06 M), 97 % of control; at CDK7/CycH/MAT1 (1.0E-05 M) it was 92 % of control; on CDK7/CycH/MAT1 (1.0E-06 M), 89 % of control; at COT (1.0E-05 M), 97 % of control; at COT (1.0E-06 M) it was 95 % of control. Also, the Residual activity on SAK (1.0E-05 M) is recorded as 71 % of control; on SAK (1.0E-06 M), 89 % of control; at TSF1 (1.0E-05 M), 94 % of control; on TSF1 (1.0E-06 M), 97 % of control; on S6K (1.0E-05 M), 91 % of control; at S6K (1.0E-06 M) it was 88 % of control. Further, the Residual activity at MEK1 (1.0E-05 M) is recorded as 109 % of control; at MEK1 (1.0E-06 M), 109 % of control; at ERK7 (1.0E-05 M), 98 % of control; on ERK7 (1.0E-06 M), 99 % of control.
